Test results taken from patent publication US8945361B2, “Electrophoresis standards, methods and kits” (ProteinSimple, priority 2005, dated 2015).
Where a SMILES comes first, the peptide text is derived from it. The star is where a group is joined. 5TAMRA = CN(C)c1ccc2c(c1)Oc1cc(N(C)C)ccc1C21OC(=O)c2cc(C(=O)*)ccc21; X1 = [N-]=[N+]=Nc1c(F)c(F)c(C(=O)*)c(F)c1F

Legend:
[1] = pI mobility standard
Description: The pI of standards can be determined directly in IEF PAGE gels using a pH meter with a microprobe.

[2] = expected pKa's, net charge and pI of the Example 5 peptide; format: physicochemical
Description: The blocks of lysine (K) and glutamic acid (E) residues contain basic and acidic ionizable groups at a variety of pKa values in keeping with the proximity effects described above. […] The approximate expected net charge on the peptide at various pH values is then as follows: pH 11, −3; pH 10, −2.5; pH 9, −1.7; pH 8, −0.8; pH 7, +0.3; pH 6, +1.2; pH 5, +2.3; pH 4, +3.2; pH 3, +4, pH 2, +4.5; pH 1, +5. […] The peptide is therefore expected to be a useful pI standard that forms a tight band under electrophoretic conditions in a pH gradient. Additional standards of desired pIs can be generated by systematically varying the number of sequential K and E residues in a set of peptides based on the above sequence.

Compound | pI [1] | approximate expected net charge ([2]; pH 1) | approximate expected net charge ([2]; pH 2) | approximate expected net charge ([2]; pH 3) | approximate expected net charge ([2]; pH 4) | approximate expected net charge ([2]; pH 5) | approximate expected net charge ([2]; pH 6) | approximate expected net charge ([2]; pH 7) | approximate expected net charge ([2]; pH 8) | approximate expected net charge ([2]; pH 9) | approximate expected net charge ([2]; pH 10) | approximate expected net charge ([2]; pH 11)
C[C@H](NC(=O)CNC(=O)[C@@H](N)CCCCNC(=O)c1c(F)c(F)c(N=[N+]=[N-])c(F)c1F)C(=O)N[C@@H](CCC(=O)O)C(=O)N[C@@H](Cc1c[nH]cn1)C(=O)N[C@@H](Cc1c[nH]cn1)C(=O)N[C@@H](CCCCNC(=O)c1ccc2c(c1)C(=O)OC21c2ccc(N(C)C)cc2Oc2cc(N(C)C)ccc21)C(=O)NCC(=O)O [H2N—K(ATFB)GAEHHK(5-TAMRA)G-OH] (H-K(X1)GAEHHK(5TAMRA)G-OH) | approximately 5.45 | – | – | – | – | – | – | – | – | – | – | –
Ac—K(ATFB) KKKKKAibAibEEEGG K(5-TAMRA)G-NH2 | – | ~+5 | ~+4.5 | ~+4 | ~+3.2 | ~+2.3 | ~+1.2 | ~+0.3 | ~−0.8 | ~−1.7 | ~−2.5 | ~−3
